Measured values: PubChem BioAssay AID1645861 (Buhrlage Lab, Dana-Farber Cancer Institute and Novartis …, 2021)
Active and inactive are the calls of the source.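 Rule for the calls: active = compounds whose peak USP7 inhibition across the dose series reached 30% or more; inactive = the rest.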

Molecular target: Ubiquitin carboxyl-terminal hydrolase 7 (Homo sapiens) (UniProt Q93009)
Test: Ubiquitin-specific protease 7 DUB inhibitors, concentration-effect, biochemical, validation of primary hits (AID 1645861)
Conditions: purified USP7, Ub-rhodamine cleavage fluorescence, 60 min

Ubiquitin carboxyl-terminal hydrolase 7 (Homo sapiens), sequence (Q93009 whole entry, looked up): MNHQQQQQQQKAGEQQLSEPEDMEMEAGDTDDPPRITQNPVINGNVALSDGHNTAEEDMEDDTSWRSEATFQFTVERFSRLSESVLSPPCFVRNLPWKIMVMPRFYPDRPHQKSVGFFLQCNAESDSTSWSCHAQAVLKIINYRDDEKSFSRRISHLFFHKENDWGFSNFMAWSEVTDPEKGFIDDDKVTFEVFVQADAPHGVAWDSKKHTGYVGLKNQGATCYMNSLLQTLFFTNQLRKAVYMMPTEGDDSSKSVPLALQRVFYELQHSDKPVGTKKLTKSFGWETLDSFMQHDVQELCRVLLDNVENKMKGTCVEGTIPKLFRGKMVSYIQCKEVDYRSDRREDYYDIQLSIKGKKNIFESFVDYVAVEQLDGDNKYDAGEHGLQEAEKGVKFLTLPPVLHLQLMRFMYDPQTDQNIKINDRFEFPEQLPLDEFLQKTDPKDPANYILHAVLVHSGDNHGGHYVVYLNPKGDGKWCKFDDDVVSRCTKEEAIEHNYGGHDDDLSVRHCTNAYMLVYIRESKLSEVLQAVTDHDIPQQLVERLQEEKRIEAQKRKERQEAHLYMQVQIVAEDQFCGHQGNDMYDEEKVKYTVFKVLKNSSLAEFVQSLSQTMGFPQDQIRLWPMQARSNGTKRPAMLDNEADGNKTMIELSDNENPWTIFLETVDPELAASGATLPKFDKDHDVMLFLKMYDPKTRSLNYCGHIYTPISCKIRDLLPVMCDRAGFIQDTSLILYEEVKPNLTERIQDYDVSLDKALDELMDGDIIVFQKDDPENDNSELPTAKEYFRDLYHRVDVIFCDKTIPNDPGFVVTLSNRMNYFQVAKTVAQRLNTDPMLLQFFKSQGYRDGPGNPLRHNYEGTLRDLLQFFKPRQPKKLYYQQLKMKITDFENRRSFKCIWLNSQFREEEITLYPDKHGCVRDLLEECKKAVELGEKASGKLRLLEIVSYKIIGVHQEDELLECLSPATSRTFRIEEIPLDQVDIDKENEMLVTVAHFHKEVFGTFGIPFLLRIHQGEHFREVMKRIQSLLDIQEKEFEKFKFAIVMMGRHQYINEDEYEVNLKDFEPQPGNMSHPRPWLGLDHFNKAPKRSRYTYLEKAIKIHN

Question: For COc1cc(Cl)c(C)cc1NC(=O)Cn1c(=O)n(CC(=O)NCc2ccco2)c(=O)c2ccccc21, which IC50 is on record?
Answer: Its IC50 is > 50 µM (inactive).

Question: For O=C(CCCn1c(=O)[nH]c2cc(Cl)ccc2c1=O)NCCCN1CCCC1=O, which IC50 is on record?
Answer: Its IC50 is > 50 µM (inactive).

Question: How did the IC50 turn out when O=C(NC1(O)C(=O)c2ccccc2C1=O)c1ccc(-c2csnn2)cc1 was run?
Answer: The IC50 was > 50 µM (inactive).

Question: How did the IC50 turn out when CC(C)=CCC(O)C1=CC(=O)c2c(O)ccc(O)c2C1=O (centres undefined) was run?
Answer: Its IC50 is 9.02 µM.

Question: How did the IC50 turn out when CCc1nc(SCC(=O)Nc2ccc(C)cc2C)c2oc3ccccc3c2n1 was run?
Answer: Its IC50 is > 50 µM (inactive).

Question: Cn1c2ccccc2c(=O)c2c(=O)n(-c3cccc(Cl)c3)c(-c3cccs3)nc21 was tested. Which IC50 did it give?
Answer: The IC50 was 35.1 µM.

Question: How did the IC50 turn out when O=C(CCCc1nnc2c(=O)n(-c3cccc(F)c3)ccn12)NCc1ccc(F)cc1 was run?
Answer: The IC50 was > 50 µM (inactive).

Question: Which IC50 does the source give for O=C(CCn1c(=O)c2ccccc2n(Cc2ccccc2F)c1=O)NCc1ccco1 here?
Answer: The IC50 was > 50 µM (inactive).

Question: For O=C(Cn1c(=O)c2ccccc2n(CC(=O)Nc2ccc(Br)cc2)c1=O)NCc1ccco1, which IC50 is on record?
Answer: The IC50 was > 50 µM (inactive).

Question: Which IC50 does the source give for O=C1CSC(c2ccc3c(c2)OCO3)c2c(n(C3CCCCCC3)[nH]c2=O)N1 (centres undefined) here?
Answer: The IC50 was > 50 µM (inactive).

Question: CCCCCCCc1cc(OC(=O)c2c(CCCCCCC)cc(O)cc2O[C@@H]2O[C@H](CO)[C@@H](O)[C@H](O)[C@H]2O)cc(O)c1C(=O)O was tested. Which IC50 did it give?
Answer: Its IC50 is 9.94 µM.

Question: Cn1c2ccccc2c(=O)c2c(=O)n(Cc3ccccc3)c(-c3ccco3)nc21 was tested. Which IC50 did it give?
Answer: Its IC50 is > 50 µM (inactive).

Question: How did the IC50 turn out when CC/C=C\C/C=C\C/C=C\CCCCCCCC(=O)O was run?
Answer: The IC50 was 25.6 µM.

Question: Which IC50 does the source give for CCc1nc(SCC(=O)Nc2cc(Cl)ccc2C)c2oc3ccccc3c2n1 here?
Answer: The IC50 was > 50 µM (inactive).

Question: For O=c1c2ccccc2oc2nc(-c3cccs3)n(-c3ccccc3)c(=O)c12, which IC50 is on record?
Answer: Its IC50 is > 50 µM (inactive).

Question: How did the IC50 turn out when CC1=CC(=O)C(C2=C(O)C(=O)C(C)=CC2=O)=C(O)C1=O was run?
Answer: Its IC50 is > 50 µM (inactive).

Question: For O=C(CSc1nc2c(cnn2-c2ccccc2)c(=O)[nH]1)Nc1ccc(Cl)cc1F, which IC50 is on record?
Answer: The IC50 was > 50 µM (inactive).

Question: COc1ccc(-c2nc(Cn3nnc(C(=O)Nc4ccc(C)c(C)c4)c3N)c(C)o2)cc1 was tested. Which IC50 did it give?
Answer: Its IC50 is > 50 µM (inactive).

Question: With Cc1ccc(-c2cc(C(F)F)n3ncc(C(=O)Nc4ccc(O)cc4)c3n2)cc1 as the compound, how does the IC50 read?
Answer: Its IC50 is > 50 µM (inactive).

Question: With COc1cccc2cc(C(=O)Nc3nc(-c4ccncc4)cs3)oc12 as the compound, how does the IC50 read?
Answer: Its IC50 is 18.3 µM.

Question: For COc1cc(O)cc2c1C(=O)OC(C)CCCCCCC2 (centres undefined), which IC50 is on record?
Answer: The IC50 was > 50 µM (inactive).

Question: For CC(C)=CCC/C(C)=C/COc1ccc(/C=C2\C(=O)N(O)[C@@H](C)C(=O)N2O)cc1, which IC50 is on record?
Answer: Its IC50 is > 50 µM (inactive).

Question: How did the IC50 turn out when O=C(Nc1cccc(Cl)c1)c1ncn2c1CNS(=O)(=O)c1ccccc1-2 was run?
Answer: Its IC50 is > 50 µM (inactive).

Question: With O=C(Cn1cccc(-c2nc(-c3ccccc3)no2)c1=O)Nc1ccccc1F as the compound, how does the IC50 read?
Answer: The IC50 was > 50 µM (inactive).

Question: Which IC50 does the source give for COc1cc(O)c2c(O)c3c(cc2c1)C[C@@]1(O)CC(=O)C(C(N)=O)=C(O)[C@@]1(O)C3=O here?
Answer: Its IC50 is 16.8 µM.

Question: For COc1cc2c(=O)n(Cc3ccccc3)c(=O)n(CC(=O)N3CCCc4ccccc43)c2cc1OC, which IC50 is on record?
Answer: Its IC50 is > 50 µM (inactive).

Question: For COc1ccc(NC(=O)CC(=O)c2ccc([N+](=O)[O-])cc2)cc1S(=O)(=O)Nc1ccc(Cl)cc1, which IC50 is on record?
Answer: The IC50 was > 50 µM (inactive).

Question: For O=C(Nc1ccccc1F)c1nc(-c2cn(-c3ccc(F)cc3)nn2)no1, which IC50 is on record?
Answer: The IC50 was > 50 µM (inactive).

Question: How did the IC50 turn out when O=C1c2ccccc2-c2nnc(-c3ccncc3)cc21 was run?
Answer: The IC50 was > 50 µM (inactive).

Question: Which IC50 does the source give for CCCCCCCCCCCCCCCc1cc(O)cc(O)c1C(=O)O here?
Answer: Its IC50 is 30.7 µM.

Question: For O=C1NC(=O)/C(=C/c2ccc(OC(=O)c3ccc(Cl)cc3Cl)cc2)N1, which IC50 is on record?
Answer: Its IC50 is > 50 µM (inactive).

Question: O=C(CSc1nnc2n(-c3ccccc3)c(=O)c3ccccc3n12)c1ccc(F)cc1 was tested. Which IC50 did it give?
Answer: Its IC50 is > 50 µM (inactive).

Question: For Cc1cccc(N2C(=O)/C(=C\c3cc(C#N)n(C)c3C)c3ccccc3C2=O)c1, which IC50 is on record?
Answer: Its IC50 is > 50 µM (inactive).

Question: Cc1ccc(NC(=O)Cn2cncc(-c3nc(-c4ccccc4)cs3)c2=O)cc1F was tested. Which IC50 did it give?
Answer: The IC50 was > 50 µM (inactive).

Question: With Cc1ccc(NCc2cc3c(-c4cccc(F)c4)nn(-c4ccccc4)c3[nH]c2=O)cc1C as the compound, how does the IC50 read?
Answer: Its IC50 is 9 µM.

Question: How did the IC50 turn out when Cc1nn(-c2ccccc2)c2c1C1(C(=O)Nc3ccccc31)N1C(=N2)Sc2ccccc21 (centres undefined) was run?
Answer: Its IC50 is 3.39 µM.

Question: For COc1ccc(NC(=O)Cn2cc(C(=O)c3ccccc3)c(=O)c3cc(Cl)ccc32)cc1OC, which IC50 is on record?
Answer: Its IC50 is > 50 µM (inactive).

Question: Which IC50 does the source give for N#Cc1cn2c(nc1-c1ccc(Cl)cc1)nc1ccccc12 here?
Answer: Its IC50 is > 50 µM (inactive).

Question: Which IC50 does the source give for O=C(Nc1nccs1)C1c2ccccc2C(=O)N(Cc2ccccc2)C12CCCC2 (centres undefined) here?
Answer: Its IC50 is > 50 µM (inactive).

Question: With O=C(/C=C/c1ccc(F)cc1)N1CCc2ccccc2C1 as the compound, how does the IC50 read?
Answer: The IC50 was > 50 µM (inactive).

Question: How did the IC50 turn out when NC(=O)c1ccccc1NC(=O)COc1ccc2c(c1)oc(=O)c1ccccc12 was run?
Answer: The IC50 was > 50 µM (inactive).

Question: For C/C=C/C=C/[C@@H]1Cc2cc(O)cc(O)c2O1, which IC50 is on record?
Answer: Its IC50 is > 50 µM (inactive).

Question: For C[C@@H]1CO[C@@H]2C3=C(C(=O)C=CC3=O)[C@H]3OC(=O)[C@@H]4CCC5[C@@H]1CCC52C34 (some centres undefined), which IC50 is on record?
Answer: The IC50 was > 50 µM (inactive).

Question: How did the IC50 turn out when Cc1ccnc(NS(=O)(=O)c2ccc(NC(=O)c3ccc(S(=O)(=O)N(C)Cc4ccccc4)cc3)cc2)n1 was run?
Answer: The IC50 was > 50 µM (inactive).
